Data as given in PMC7104248, “Discovery of Taniborbactam (VNRX-5133): A Broad-Spectrum Serine- and Metallo-β-lactamase Inhibitor for Carbapenem-Resistant Bacterial Infections” (Journal of Medicinal Chemistry, 2019).
Converted amounts (≈) assume the structure as drawn. Where two headings read alike, the source gives them in different places.

Experiments:
VIM-2 = VIM-2 (Escherichia coli, UniProt Q5U7L7); assay: β-lactamase inhibition assay, nitrocefin substrate; assay type: biochemical; details: in our hands
[1] = system: 14 Gram-negative pathogens expressing class B enzymes (VIM-1, VIM-2, VIM-4, NDM-1); assay type: cell-based; details: 14 MBL-producing strains
S. aureus 29213 (W/T) = assay: intrinsic antibacterial activity, MIC; assay type: cell-based; details: Staphylococcus aureus
S. aureus 33591 (MRSA) = assay: intrinsic antibacterial activity, MIC; assay type: cell-based; details: Staphylococcus aureus
E. coli 25922 (W/T) = assay: intrinsic antibacterial activity, MIC; assay type: cell-based; details: Escherichia coli
[2] = system: E. coli J53 (SHV5, AmpC, TEM-1); assay: intrinsic antibacterial activity, MIC; assay type: cell-based; details: Escherichia coli
[3] = system: K. pneumoniae CI 09 (W/T); assay: intrinsic antibacterial activity, MIC; assay type: cell-based; details: Klebsiella pneumoniae
[4] = system: K. pneumoniae UMM (SHV5, KPC-2, TEM-1); assay: intrinsic antibacterial activity, MIC; assay type: cell-based; details: Klebsiella pneumoniae
[5] = system: K. pneumoniae A-1797 (KPC-2, VIM-4, CMY-4); assay: microbe, parasite or virus in culture; assay type: cell-based; details: Klebsiella pneumoniae
[6] = system: K. pneumoniae 11978 (OXA-48); assay: intrinsic antibacterial activity, MIC; assay type: cell-based; details: Klebsiella pneumoniae
[7] = system: E. cloacae 144200 (p99 AmpC); assay: intrinsic antibacterial activity, MIC; assay type: cell-based; details: Enterobacter cloacae
[8] = system: E. aerogenes 188548 (AmpC); assay: intrinsic antibacterial activity, MIC; assay type: cell-based; details: Klebsiella aerogenes
[9] = system: P. aeruginosa 27853 (W/T); assay: intrinsic antibacterial activity, MIC; assay type: cell-based; details: Pseudomonas aeruginosa
[10] = system: P. aeruginosa Ps296 (AmpC, VIM-2, TEM-1); assay: intrinsic antibacterial activity, MIC; assay type: cell-based; details: Pseudomonas aeruginosa
[11] = system: human primary renal proximal tubule cells; assay: toxicity in renal proximal tubule cells; assay type: cell-based; details: tested up to 1000 μg/mL
hERG potassium channel = hERG potassium channel (Homo sapiens, UniProt Q12809); assay: selectivity panel at 100 μM
Excerpt: (§1) The panel included serine proteases (i.e., cathepsin G, chymotrypsin, Factor Xa, trypsin, and neutrophil elastase 2), metalloproteinases (MMP-1, -2, -3, and -9), cytochrome P450s (1A2, 2C9, 2C19, 2D6, and 3A4), and the hERG potassium channel.

[12] = system: panel of 50 human enzymes and receptors; assay: selectivity panel at 100 μM
Excerpt: as §1

chymotrypsin = assay: selectivity panel at 100 μM; assay type: biochemical, human
Excerpt: as §1

trypsin = assay: selectivity panel at 100 μM; assay type: biochemical, human
Excerpt: as §1

Factor Xa = biological target: T1, Factor Xa (Homo sapiens, UniProt P00742); assay: selectivity panel at 100 μM; assay type: biochemical
T1 construct: serine proteases (i.e., cathepsin G, chymotrypsin, Factor Xa, trypsin, and neutrophil elastase 2)
Excerpt: as §1

MMP-1 = MMP-1 (Homo sapiens, UniProt P03956); assay: selectivity panel at 100 μM; assay type: biochemical
Excerpt: as §1

MMP-2 = MMP-2 (Homo sapiens, UniProt P08253); assay: selectivity panel at 100 μM; assay type: biochemical
Excerpt: as §1

MMP-3 = MMP-3 (Homo sapiens, UniProt P08254); assay: selectivity panel at 100 μM; assay type: biochemical
Excerpt: as §1

MMP-9 = MMP-9 (Homo sapiens, UniProt P14780); assay: selectivity panel at 100 μM; assay type: biochemical
Excerpt: as §1

cathepsin G = cathepsin G (Homo sapiens, UniProt P08311); assay: selectivity panel at 100 μM; assay type: biochemical
Excerpt: as §1

neutrophil elastase 2 = neutrophil elastase 2 (Homo sapiens, UniProt P08246); assay: selectivity panel at 100 μM; assay type: biochemical
Excerpt: as §1

cytochrome P450 1A2 = cytochrome P450 1A2 (Homo sapiens, UniProt P05177); assay: selectivity panel at 100 μM; assay type: in vitro ADME
Excerpt: as §1

cytochrome P450 2C19 = cytochrome P450 2C19 (Homo sapiens, UniProt P33261); assay: selectivity panel at 100 μM; assay type: in vitro ADME
Excerpt: as §1

cytochrome P450 2C9 = cytochrome P450 2C9 (Homo sapiens, UniProt P11712); assay: selectivity panel at 100 μM; assay type: in vitro ADME
Excerpt: as §1

cytochrome P450 2D6 = cytochrome P450 2D6 (Homo sapiens, UniProt P10635); assay: selectivity panel at 100 μM; assay type: in vitro ADME
Excerpt: as §1

cytochrome P450 3A4 = cytochrome P450 3A4 (Homo sapiens, UniProt P08684); assay: selectivity panel at 100 μM; assay type: in vitro ADME
Excerpt: as §1

[13] = preclinical toxicity evaluation
Excerpt: NCT03840148 at ClinicalTrials.gov).

OXA-48 = OXA-48 (Klebsiella pneumoniae, UniProt Q6XEC0); details: read-out: IC50 OXA-48, literature value in parentheses; cited from earlier work
IMP-1 [14] = biological target: T2, IMP-1 (Serratia marcescens, UniProt P52699); details: read-out: IC50 IMP-1, literature value in parentheses; cited from earlier work
CphA = details: read-out: IC50 subclass B2 MBL CphA; cited from earlier work
L1 = system: L1; design: method as in PMID 31454231; details: cited from earlier work
[15] = system: K. pneumoniae ATCC BAA 1705 (KPC-2); assay: MIC, rescue of β-lactams in MDR clinical isolates; assay type: cell-based; details: Klebsiella pneumoniae, BAA1705, read-out: PIP MIC
[16] = system: K. pneumoniae CDC-0040 (VIM-27, CTX-M-15, SHV-11, OXA-1); assay: MIC, rescue of β-lactams in MDR clinical isolates; assay type: cell-based; details: Klebsiella pneumoniae, read-out: PIP MIC
[17] = system: E. coli CDC-0055 (NDM-1, CMY-6, OXA-1); assay: MIC, rescue of β-lactams in MDR clinical isolates; assay type: cell-based; details: Escherichia coli, read-out: PIP MIC
[18] = system: K. pneumoniae CDC-0066 (OXA-232, OXA-9, TEM-1A, CTX-M-15, OXA-1); assay: MIC, rescue of β-lactams in MDR clinical isolates; assay type: cell-based; details: Klebsiella pneumoniae, read-out: PIP MIC
[19] = system: P. aeruginosa CDC-0356 (KPC-2, PDC-42); assay: MIC, rescue of β-lactams in MDR clinical isolates; assay type: cell-based; details: Pseudomonas aeruginosa, read-out: PIP MIC
[20] = system: K. pneumoniae CDC-0361 (KPC-2, SHV-12, TEM-1); assay: MIC, rescue of β-lactams in MDR clinical isolates; assay type: cell-based; details: Klebsiella pneumoniae, read-out: PIP MIC
E. coli CDC-0452 (NDM) = assay: MIC, rescue of β-lactams in MDR clinical isolates; assay type: cell-based; details: Escherichia coli, read-out: PIP MIC
[21] = system: P. aeruginosa CDC-0457 (VIM); assay: MIC, rescue of β-lactams in MDR clinical isolates; assay type: cell-based; details: Pseudomonas aeruginosa, read-out: PIP MIC
NDM-1 = NDM-1 (Klebsiella pneumoniae, UniProt C7C422); assay: biochemical
IMP-1 [22] = biological target: T2, IMP-1; assay: β-lactamase inhibition assay, nitrocefin substrate; assay type: biochemical

T2 sequence (P52699 19-246 limits assumed): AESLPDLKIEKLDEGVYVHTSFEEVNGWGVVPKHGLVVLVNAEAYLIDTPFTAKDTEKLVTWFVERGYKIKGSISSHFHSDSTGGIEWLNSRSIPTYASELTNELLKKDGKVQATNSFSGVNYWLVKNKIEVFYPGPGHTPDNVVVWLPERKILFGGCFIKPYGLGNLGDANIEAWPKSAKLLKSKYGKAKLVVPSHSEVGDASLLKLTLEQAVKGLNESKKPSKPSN
Sequence of cathepsin G (P08311 21-255): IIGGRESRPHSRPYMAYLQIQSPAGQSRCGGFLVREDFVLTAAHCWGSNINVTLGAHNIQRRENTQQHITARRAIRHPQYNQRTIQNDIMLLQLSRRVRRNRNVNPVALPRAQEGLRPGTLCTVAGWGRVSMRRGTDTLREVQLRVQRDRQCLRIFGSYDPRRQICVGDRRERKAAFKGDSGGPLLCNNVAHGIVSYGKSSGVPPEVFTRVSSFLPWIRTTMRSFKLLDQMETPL
Sequence of cytochrome P450 1A2 (P05177 whole entry): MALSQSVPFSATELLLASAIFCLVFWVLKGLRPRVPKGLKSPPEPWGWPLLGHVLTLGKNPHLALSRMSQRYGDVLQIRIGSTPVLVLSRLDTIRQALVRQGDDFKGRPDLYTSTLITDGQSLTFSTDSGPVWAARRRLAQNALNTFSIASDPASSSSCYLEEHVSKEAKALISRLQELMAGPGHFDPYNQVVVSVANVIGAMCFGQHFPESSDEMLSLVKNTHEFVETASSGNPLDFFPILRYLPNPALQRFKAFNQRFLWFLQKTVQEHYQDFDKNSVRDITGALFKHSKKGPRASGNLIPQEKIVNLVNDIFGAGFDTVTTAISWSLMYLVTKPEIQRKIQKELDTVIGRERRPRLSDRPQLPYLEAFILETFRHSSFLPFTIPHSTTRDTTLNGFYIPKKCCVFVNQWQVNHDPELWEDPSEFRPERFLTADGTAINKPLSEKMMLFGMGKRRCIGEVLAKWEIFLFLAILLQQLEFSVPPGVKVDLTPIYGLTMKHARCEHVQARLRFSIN
Sequence of neutrophil elastase 2 (P08246 30-267): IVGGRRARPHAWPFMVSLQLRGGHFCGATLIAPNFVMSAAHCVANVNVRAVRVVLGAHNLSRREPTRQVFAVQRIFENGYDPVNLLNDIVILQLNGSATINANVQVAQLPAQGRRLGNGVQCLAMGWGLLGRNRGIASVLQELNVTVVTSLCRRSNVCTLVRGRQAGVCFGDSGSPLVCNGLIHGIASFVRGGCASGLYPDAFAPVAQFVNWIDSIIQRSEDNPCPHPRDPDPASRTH
Sequence of MMP-2 (P08253 110-660): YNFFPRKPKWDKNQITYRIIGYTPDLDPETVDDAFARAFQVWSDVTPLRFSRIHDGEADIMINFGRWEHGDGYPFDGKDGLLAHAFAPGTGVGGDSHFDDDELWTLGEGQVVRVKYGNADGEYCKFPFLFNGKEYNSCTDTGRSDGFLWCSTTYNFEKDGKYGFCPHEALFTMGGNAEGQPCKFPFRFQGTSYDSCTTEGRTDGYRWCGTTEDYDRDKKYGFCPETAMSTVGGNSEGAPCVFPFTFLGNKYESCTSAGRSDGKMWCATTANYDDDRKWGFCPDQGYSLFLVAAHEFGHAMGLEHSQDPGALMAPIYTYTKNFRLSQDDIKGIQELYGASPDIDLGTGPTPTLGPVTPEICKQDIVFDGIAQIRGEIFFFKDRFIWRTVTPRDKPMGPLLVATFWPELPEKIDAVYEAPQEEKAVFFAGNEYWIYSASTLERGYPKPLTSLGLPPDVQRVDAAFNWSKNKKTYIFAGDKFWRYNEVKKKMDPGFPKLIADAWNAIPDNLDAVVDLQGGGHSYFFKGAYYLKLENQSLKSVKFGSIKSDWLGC
T1 sequence (P00742 235-488 limits assumed): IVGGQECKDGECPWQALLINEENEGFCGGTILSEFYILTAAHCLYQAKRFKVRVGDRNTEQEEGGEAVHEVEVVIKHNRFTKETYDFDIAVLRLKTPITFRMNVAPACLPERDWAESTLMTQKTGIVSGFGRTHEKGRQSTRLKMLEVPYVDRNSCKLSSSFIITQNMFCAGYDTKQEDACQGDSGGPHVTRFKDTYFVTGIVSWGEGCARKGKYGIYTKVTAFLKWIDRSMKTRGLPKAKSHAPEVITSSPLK
T1 sequence (P00742 41-179 partner limits assumed): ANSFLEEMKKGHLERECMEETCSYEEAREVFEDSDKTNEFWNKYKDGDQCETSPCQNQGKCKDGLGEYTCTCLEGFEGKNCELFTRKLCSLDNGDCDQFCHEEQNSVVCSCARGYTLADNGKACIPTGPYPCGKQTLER
Sequence of OXA-48 (Q6XEC0 23-265, looked up): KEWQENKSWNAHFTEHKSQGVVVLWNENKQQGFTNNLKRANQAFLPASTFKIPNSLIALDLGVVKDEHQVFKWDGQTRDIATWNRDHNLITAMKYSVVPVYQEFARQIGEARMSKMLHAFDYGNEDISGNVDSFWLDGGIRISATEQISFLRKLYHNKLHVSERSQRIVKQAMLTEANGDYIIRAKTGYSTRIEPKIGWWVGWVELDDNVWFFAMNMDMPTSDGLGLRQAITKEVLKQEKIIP
Sequence of cytochrome P450 3A4 (P08684 whole entry): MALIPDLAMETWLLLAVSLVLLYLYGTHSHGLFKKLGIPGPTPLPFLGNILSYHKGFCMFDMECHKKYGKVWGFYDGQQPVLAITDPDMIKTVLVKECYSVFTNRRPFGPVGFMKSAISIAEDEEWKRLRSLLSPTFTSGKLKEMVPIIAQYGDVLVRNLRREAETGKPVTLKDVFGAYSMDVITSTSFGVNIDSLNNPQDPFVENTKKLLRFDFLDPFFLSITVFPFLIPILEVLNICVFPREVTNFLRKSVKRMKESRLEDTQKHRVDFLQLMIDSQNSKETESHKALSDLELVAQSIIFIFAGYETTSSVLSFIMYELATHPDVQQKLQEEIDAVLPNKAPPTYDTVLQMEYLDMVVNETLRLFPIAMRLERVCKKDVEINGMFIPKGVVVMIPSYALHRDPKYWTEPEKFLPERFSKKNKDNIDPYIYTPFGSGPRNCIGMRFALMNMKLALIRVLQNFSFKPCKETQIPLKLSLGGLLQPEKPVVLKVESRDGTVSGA
Sequence of MMP-9 (P14780 94-707): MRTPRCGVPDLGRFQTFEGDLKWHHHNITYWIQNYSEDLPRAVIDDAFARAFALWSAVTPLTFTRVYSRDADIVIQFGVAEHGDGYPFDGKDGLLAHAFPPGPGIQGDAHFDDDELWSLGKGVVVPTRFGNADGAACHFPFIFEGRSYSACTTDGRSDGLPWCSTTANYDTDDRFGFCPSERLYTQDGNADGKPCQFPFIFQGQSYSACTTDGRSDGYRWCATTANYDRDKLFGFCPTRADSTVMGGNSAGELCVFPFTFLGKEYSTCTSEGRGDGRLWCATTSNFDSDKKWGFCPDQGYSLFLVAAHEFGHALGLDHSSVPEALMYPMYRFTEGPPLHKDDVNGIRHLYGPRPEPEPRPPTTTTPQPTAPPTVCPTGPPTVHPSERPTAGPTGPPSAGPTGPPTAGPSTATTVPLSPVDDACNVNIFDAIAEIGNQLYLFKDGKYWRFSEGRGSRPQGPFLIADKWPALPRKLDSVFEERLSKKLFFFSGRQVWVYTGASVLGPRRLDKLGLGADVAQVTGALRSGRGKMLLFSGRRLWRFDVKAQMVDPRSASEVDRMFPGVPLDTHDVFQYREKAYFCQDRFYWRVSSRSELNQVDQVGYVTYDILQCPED
Sequence of NDM-1 (C7C422 29-270 limits assumed): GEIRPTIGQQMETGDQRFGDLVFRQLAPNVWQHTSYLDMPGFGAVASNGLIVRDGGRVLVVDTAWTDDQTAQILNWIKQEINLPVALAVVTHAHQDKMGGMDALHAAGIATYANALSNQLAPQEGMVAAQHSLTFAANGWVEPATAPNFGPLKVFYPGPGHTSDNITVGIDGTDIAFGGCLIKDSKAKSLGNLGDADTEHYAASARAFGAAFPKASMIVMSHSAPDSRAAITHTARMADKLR
Sequence of MMP-3 (P08254 100-477): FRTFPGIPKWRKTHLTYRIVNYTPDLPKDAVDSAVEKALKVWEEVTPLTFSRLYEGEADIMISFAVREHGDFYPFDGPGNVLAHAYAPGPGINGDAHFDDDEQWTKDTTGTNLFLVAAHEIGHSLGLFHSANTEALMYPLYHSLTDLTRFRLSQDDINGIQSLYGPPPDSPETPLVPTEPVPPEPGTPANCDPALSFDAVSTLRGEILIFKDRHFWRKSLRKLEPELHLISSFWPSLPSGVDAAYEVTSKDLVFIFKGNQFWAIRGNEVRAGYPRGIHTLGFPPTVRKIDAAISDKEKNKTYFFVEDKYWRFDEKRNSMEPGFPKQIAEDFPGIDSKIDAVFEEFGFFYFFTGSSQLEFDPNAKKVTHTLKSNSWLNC
Sequence of cytochrome P450 2C9 (P11712 whole entry): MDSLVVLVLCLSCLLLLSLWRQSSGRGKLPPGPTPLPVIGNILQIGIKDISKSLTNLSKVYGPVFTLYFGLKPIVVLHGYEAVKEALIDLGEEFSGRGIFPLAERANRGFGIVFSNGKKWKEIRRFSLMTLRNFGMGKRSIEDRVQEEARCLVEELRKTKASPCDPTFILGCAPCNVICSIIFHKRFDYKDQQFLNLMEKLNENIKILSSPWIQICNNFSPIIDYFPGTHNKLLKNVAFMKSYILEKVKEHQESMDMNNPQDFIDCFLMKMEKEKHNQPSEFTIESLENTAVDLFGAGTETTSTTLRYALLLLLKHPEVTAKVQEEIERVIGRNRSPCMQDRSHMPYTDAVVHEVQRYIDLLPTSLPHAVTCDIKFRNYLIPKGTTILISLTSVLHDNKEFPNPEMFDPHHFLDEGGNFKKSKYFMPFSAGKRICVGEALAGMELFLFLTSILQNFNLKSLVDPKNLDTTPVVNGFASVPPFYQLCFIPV

**Q.** For `CC(=O)N[C@H]1Cc2cccc(C(=O)O)c2OB1O` [compound 1], which “inhibition of the MBL VIM-2, in words” value (VIM-2) is on record?
**A.** micromolar levels

**Q.** What does the source list for `NCCN[C@H]1CC[C@H](CC(=O)N[C@H]2Cc3cccc(C(=O)O)c3OB2O)CC1` [compound 20, (3R)-3-(2-{trans-4-[(2-Aminoethyl)amino]cyclohexyl}acetamido)-2-hydroxy-3,4-dihydro-2H-1,2-benzoxaborinine-8-carboxylic Acid]?
**A.** decrease in the MIC of cefepime on addition of BLI [1]: ≥ 512 fold; MIC (S. aureus 29213 (W/T)): > 128 µg/mL; MIC (S. aureus 33591 (MRSA)): > 128 µg/mL; MIC (E. coli 25922 (W/T)): > 128 µg/mL; MIC [2]: > 128 µg/mL; MIC [3]: > 128 µg/mL; MIC [4]: > 128 µg/mL; MIC [5]: > 128 µg/mL; MIC [6]: > 128 µg/mL; MIC [7]: > 128 µg/mL; MIC [8]: > 128 µg/mL; MIC [9]: > 128 µg/mL; MIC [10]: > 128 µg/mL; toxicity in human primary proximal tubule cells [11]: No toxicity; activity against hERG potassium channel (hERG potassium channel): no significant activity; activity against panel of 50 human enzymes and receptors [12]: no significant activity; activity against chymotrypsin (chymotrypsin): no significant activity; activity against trypsin (trypsin): no significant activity; activity against Factor Xa (Factor Xa): no significant activity; activity against MMP-1 (MMP-1): no significant activity; activity against MMP-2 (MMP-2): no significant activity; activity against MMP-3 (MMP-3): no significant activity; activity against MMP-9 (MMP-9): no significant activity; activity against cathepsin G (cathepsin G): no significant activity; activity against neutrophil elastase 2 (neutrophil elastase 2): no significant activity; activity against cytochrome P450 1A2 (cytochrome P450 1A2): no significant activity; activity against cytochrome P450 2C19 (cytochrome P450 2C19): no significant activity; activity against cytochrome P450 2C9 (cytochrome P450 2C9): no significant activity; activity against cytochrome P450 2D6 (cytochrome P450 2D6): no significant activity; activity against cytochrome P450 3A4 (cytochrome P450 3A4): no significant activity; safety profile in the preclinical toxicity evaluation [13]: clean safety profile; IC50 (OXA-48): 540 nM; IC50 (IMP-1 [14]): 2510 nM; IC50 (CphA): ~2510 nM; inhibition of subclass B3 MBL L1 (L1): did not inhibit

**Q.** Which “inhibition of the MBL VIM-2, in words” value (VIM-2) does the source give for `NCc1ccc(CC(=O)N[C@H]2Cc3cccc(C(=O)O)c3OB2O)cc1` [compound 3] here?
**A.** micromolar levels

**Q.** What does the source list for `CCN1CCN(C(=O)N[C@@H](C(=O)N[C@@H]2C(=O)N3[C@@H]2SC(C)(C)[C@@H]3C(=O)O)c2ccccc2)C(=O)C1=O` [piperacillin]?
**A.** MIC [15]: > 128 µg/mL; MIC [16]: > 128 µg/mL; MIC [17]: > 128 µg/mL; MIC [18]: > 128 µg/mL; MIC [19]: > 128 µg/mL; MIC [20]: > 128 µg/mL; MIC (E. coli CDC-0452 (NDM)): > 128 µg/mL; MIC [21]: 64 µg/mL (≈ 124 µM)

**Q.** With `NC(=O)[C@@H]1CC[C@@H]2CN1C(=O)N2OS(=O)(=O)O` [avibactam] as the compound, how does the IC50 (NDM-1) read?
**A.** > 100000 nM

**Q.** And the IC50 (IMP-1 [22])?
**A.** > 100000 nM
